Assays:
Test in all cases: Initial-rate inhibition of SULT-catalyzed 1-HP sulfonation
Type in all cases: biochemical
[1] = molecular target: T1, SULT1E1 (Homo sapiens, UniProt P49888); conditions: concentrations as high as 10 μM
T1 construct: E. coli–optimized SULT coding regions were inserted into a pGEX-6P expression vector; N-His/GST/MBP triple tag (PreScission-cleavable) (N, cleaved yes); made in house; host or cells: E. coli BL21(DE3)
T1 sequence (P49888 1-294): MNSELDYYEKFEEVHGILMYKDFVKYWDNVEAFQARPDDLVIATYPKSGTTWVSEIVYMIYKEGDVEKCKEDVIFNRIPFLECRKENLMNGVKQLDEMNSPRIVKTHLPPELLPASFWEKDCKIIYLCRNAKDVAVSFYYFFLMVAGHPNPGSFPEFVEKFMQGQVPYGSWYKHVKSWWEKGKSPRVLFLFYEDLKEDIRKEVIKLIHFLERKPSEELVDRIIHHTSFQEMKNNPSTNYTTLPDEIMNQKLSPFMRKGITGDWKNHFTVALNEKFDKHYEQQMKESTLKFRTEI
Protocol: (§1) The affinity and specificity of CMP12 and CMP13 were evaluated in initial-rate studies using the four major SULT isoforms expressed in the brain and liver ([27])—SULT1A1, SULT1E1, SULT1A3, and SULT2A1. Initial-rate vs [inhibitor] plots are presented in Fig. 3, A–B. The data are normalized to the rates in the absence of inhibitor. Solid lines passing through the data are the predictions of least-squares fitting to a single-binding-site, partial-inhibition model. The best-fit parameters are found in Table 1. […] Both compounds are partial inhibitors, and their percent inhibition values at saturation (83 and 98%, respectively) agree well with the predicted values.
(§2) Figure 3 Affinity, specificity, and binding sites of CMP12 and CMP13. A and B, inhibition studies. Initial rates of SULT-catalyzed 1-HP sulfonation are plotted as a function of inhibitor concentration. Rates are normalized to the rate observed in the absence of the inhibitor. Inhibition of the major SULT isoforms found in the brain and liver were tested. SULT activity was monitored via the sulfonation-dependent change in 1-HP fluorescence (λex = 325 nm, λem = 375 nm ([15], [28])). Reaction conditions were as follows: SULT (20 nM, active sites), PAPS (0.50 mM, 17 × Km), 1-HP (5.0 μM, 61 × Km), KPO4 (50 mM), pH 7.5, 25(±2) °C. Less than 5% of the concentration-limiting substrate was converted to the product at reaction endpoints. Each data point is the average of three independent determinations. The lines passing through the data are least-squares fits to a noncompetitive partial-inhibition model (see Experiment and Initial rate). C, CMP8 competes with CMP12 and CMP13. Initial rates at saturating CMP12 or CMP13 are plotted as a function of CMP8 concentration. Rates are normalized to the rate observed in the absence of the inhibitor. […] Lines passing through the data are the predictions of a noncompetitive partial-inhibition model in which inhibitors compete for the same site (see Experiment and Binding competition). SULT, sulfotransferase; PAP, 3′-phosphoadenosine-5′-phosphate; SULT1A3, sulfotransferase 1A3; PAPS, 3’-phosphoadenosine 5’-phosphosulfate; 1-HP, 1-hydroxypyrene.
(§3) Initial-rate inhibition parameters were obtained from classical initial-rate studies ([16], [28], [43]). Reactions were initiated by addition of PAPS (0.50 mM, 17 × Km) to a solution containing SULT1A3 (20 nM, active sites), inhibitor (0.2–20 × Ki), 1-HP (5.0 μM, 60 × Km), and KPO4 (50 mM), pH 7.5, 25(±2) °C. Reaction progress was monitored via the fluorescence change associated with 1-HP sulfonation (λex = 325 nm, λem = […] ([15], [28])). Less than 5% of the 1-HP was converted to the product at reaction endpoints. Ki and kcat inh (i.e., turnover at saturating inhibitor and substrate) were obtained by fitting to the following quadratic equation for noncompetitive, partial inhibition at [S] >> Km ([44]):(7) v/Vmax=([Etot]+[ESI](α-1))/[Etot] where(8) α=kcat inh/kcat and(9) [ESI]=[([E]tot+[I]tot+Ki)−[([E]tot+[I]tot+Ki)^2−4·[I]tot·[E]tot]^1/2]/2

[2] = molecular target: T2, SULT2A1 (Homo sapiens, UniProt Q06520); conditions: concentrations as high as 10 μM
T2 construct: E. coli–optimized SULT coding regions were inserted into a pGEX-6P expression vector; N-His/GST/MBP triple tag (PreScission-cleavable) (N, cleaved yes); made in house; host or cells: E. coli BL21(DE3)
T2 sequence (Q06520 1-285): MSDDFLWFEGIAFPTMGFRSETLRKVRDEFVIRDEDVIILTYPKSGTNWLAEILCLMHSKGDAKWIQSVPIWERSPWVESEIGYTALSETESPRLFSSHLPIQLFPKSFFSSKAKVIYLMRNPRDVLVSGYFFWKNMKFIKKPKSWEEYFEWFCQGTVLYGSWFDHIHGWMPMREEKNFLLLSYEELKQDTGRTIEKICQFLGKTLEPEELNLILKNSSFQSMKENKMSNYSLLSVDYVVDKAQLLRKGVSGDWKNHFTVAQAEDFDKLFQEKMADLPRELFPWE
Protocol: as §1, §2, §3

[3] = molecular target: T3, SULT1A1 (Homo sapiens, UniProt P50225)
T3 construct: E. coli–optimized SULT coding regions were inserted into a pGEX-6P expression vector; N-His/GST/MBP triple tag (PreScission-cleavable) (N, cleaved yes); made in house; host or cells: E. coli BL21(DE3)
T3 sequence (P50225 whole entry): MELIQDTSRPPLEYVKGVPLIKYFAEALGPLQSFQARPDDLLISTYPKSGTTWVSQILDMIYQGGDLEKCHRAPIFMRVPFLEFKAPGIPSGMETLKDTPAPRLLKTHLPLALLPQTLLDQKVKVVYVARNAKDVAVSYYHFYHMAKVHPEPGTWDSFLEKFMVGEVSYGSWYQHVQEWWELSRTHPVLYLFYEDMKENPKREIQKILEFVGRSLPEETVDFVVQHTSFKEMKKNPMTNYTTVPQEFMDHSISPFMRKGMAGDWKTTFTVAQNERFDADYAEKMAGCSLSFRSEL
Protocol: as §1, §2, §3

| SMILES | inhibition of SULT1E1 [1] | inhibition of SULT2A1 [2] | inhibition of SULT1A1 ([3]; concentrations as high as 10 μM) | Ki ([3]; SULT1A1, initial rate) |
| --- | --- | --- | --- | --- |
| CC(C)Cc1ccc2cc(CCC(N)=O)ccc2n1 [CMP12] | no detectable inhibition | no detectable inhibition | no detectable inhibition |  |
| CC(C)Cc1ccc2cc(/C=C/C(N)=O)cnc2n1 [CMP13] | behaved similarly | behaved similarly |  | 3.1 ± 0.2 µM |

Source: article PMC7948405, “Small-molecule control of neurotransmitter sulfonation” (The Journal of Biological Chemistry, 2020)
